According to patent publication US20260248833A1, “PYRIMIDINE NUCLEOSIDE TREATMENTS” (The Children`s Medical Center Corporation, priority 2022, published 2026):
Entries after “also recorded” stand apart in the source; their conditions may differ.

Tests used:
[1] = tested on: TERC-null 293T cells; test: TRF Southern blot telomere length, telomerase-negative TERC-null 293T cells; assay type: cell-based, human; conditions: 100 μM thymidine for 7 days
Procedure: (§1) Cell culture: K562 cells (ATCC) were grown in RPMI1 1640 (Gibco) media supplemented with 10% fetal bovine serum. 293T cells (ATCC) were grown in DMEM (Gibco) supplemented with 10% fetal bovine serum, and were subcultured using 0.05% trypsin (Gibco). iPSCs were derived, characterized and cultured as previously described. iPSCs were grown in Essential 8 Media (Life Technologies) supplemented with the ROCK inhibitor Y271632 (Stem Cell Technologies) at 10 μM on plates coated with hES qualitied Matrigel matrix (Corning) and were subcultured using Accutase (Stem Cell Technologies).
(§2) Terminal Restriction Fragment Length Analysis: genomic DNA was isolated from cells using the Invitrogen Purelink Genomic DNA mini kit (Invitrogen). 1-3 μg of gDNA was digested with RsaI and HinfI for 2-3 hrs at 37° C. and loaded onto a 0.6% agarose gel followed by Southern blotting using the Telotaggg Telomere Length Assay Kit (Roche). Quantification was performed using the WALTER webtool.

[2] = tested on: pCHK1-S345 and pRPA32-S33; test: Immunoblot of replication stress signaling in super-telomerase cells; assay type: cell-based, human
[3] = tested on: 293T cells; test: Cell growth curves by hemocytometry, 293T cells; assay type: cell-based
Procedure: Quantification of cell growth was performed using hemocytometry with trypan blue staining to identify dead cells. For growth curves, 50k cells were plated per 12 well or 100k cells were plated per 6 well and cells were passaged when confluent, counted using a hemocytometer, and replated at equal numbers in fresh media.

[4] = tested on: 293T cells; test: Polar metabolite profiling by LC-MS of dT treated 293T cells; assay type: cell-based, human
Procedure: Liquid Chromatography-Mass Spectrometry: extraction of and quantification of polar metabolites was performed as described using HPLC grade methanol (Fisher Scientific). If a given species was detected in multiple ion modes, the mode with the highest average signal in the untreated cells was used for analysis.

[5] = tested on: super-telomerase cells (TERC-null 293T cells transfected with TERT and TERC); test: Cell cycle analysis by DAPI staining and flow cytometry, super-telomerase cells; assay type: cell-based, human; conditions: 40 μM dT
Procedure: (§3) Cell cycle analysis by DNA content staining and flow cytometry: Cells were prepared either for flow-FISH staining as described (for experiments in FIG. 5) or by ethanol fixation (for data in FIG. 6, 27), followed by rehydration and counterstaining using DAPI (BD Biosciences) and analysis on an LSR-II or Fortessa analyzer (BD Biosciences) using BD FACSDiva 8.0.2. Cells were gated on FSC/SSC as described in FIG. 6d using FlowJo V10.7.1.

[6] = tested on: super-telomerase cells (TERC-null 293T cells transfected with TERT and TERC); test: TRF Southern blot telomere synthesis in super-telomerase cells; assay type: cell-based, human
Procedure: as §2
dT supplementation increases levels of dTTP and can reduce dCTP levels, leading to replication stress at high doses. Because replication stress signaling has been implicated in telomerase biology we asked whether replication stress induction explained the telomere length increases seen with dT treatment. We first tested whether telomere elongation is a universal response to replication stress-inducing compounds. […] However, cytotoxicity limited our ability to apply higher doses of replication stress-inducing compounds for time periods long enough to study telomere length changes. […] Using this system, we next asked how high-dose treatment with replication stress-inducing agents such as aphidicolin, hydroxyurea, and the TYMS inhibitor 5FU influence telomere synthesis compared to dT.

[7] = tested on: primary fibroblasts; test: Telomere lengthening from dT with TERT expression in primary fibroblasts; assay type: cell-based; conditions: primary fibroblasts (FIG. 30A)
[8] = tested on: telomerase; test: TRAP assay on lysates from 293T cells treated with dT; assay type: cell-based, human; conditions: 293T cells treated with or without 100 μM dT, 3 days
Procedure: TRAP assay: cell extracts for TRAP assays were made using TRAPeze™1×CHAPS Lysis Buffer (Roche) supplemented with RNASEin (Promega). Standard TRAP reactions (in FIG. 25a) were performed as described, with cell input normalized across samples using the Bio-Rad DC assay. TRAP assays were modified to enable unique dNTP concentrations in telomerase reactions from PCR reactions (FIG. 25) as follows: reactions were assembled with 1×TRAP buffer (20 mM Tris-HCl, pH 8.3; 1.5 mM MgCl2; 63 mM KCl; 0.05% Tween 20; 1 mM EGTA), TS, ACX, TNST, and NT primers as described (see Primers/Oligos below), dNTPs were added at physiologic concentrations (dATP 24 μM, dGTP 5.2 μM, dCTP 29 μM, dTTP 37 μM) unless otherwise mentioned in the figure legend, followed by telomerase extracts. TRAP assays were modified to detect GGAAAG repeats using the following primers: TS GGAAAG, TNST GGAAAG, ACX GGAAAG, and NT (see Primers/Oligos below). After addition of telomerase extracts, reactions were incubated for 30 minutes at 30° C. followed by heat inactivation at 95° C. for 5 minutes. […] Images were quantified for a given lane using ImageJ by measuring the signal of the telomerase repeat sized products divided by the signal of the internal control band for the lane, normalized to the same ratio for the untreated sample(s) in a given experiment. […]

[9] = tested on: 293T cells; test: Terminal restriction fragment (TRF) Southern blot telomere length, 293T cells; assay type: cell-based, human
Procedure: as §1, §2

[10] = tested on: human HSPCs; test: TRF telomere length of HSPCs; assay type: cell-based; conditions: HSPCs treated with dT for 7 days (FIG. 19)
Procedure: as §2

[11] = tested on: K562 cells; test: Cell cycle analysis by DAPI staining and flow cytometry, K562 cells; assay type: cell-based, human
Procedure: as §3

[12] = increasing doses of dT (FIG. 8a)

## Cc1cn([C@H]2C[C@H](O)[C@@H](CO)O2)c(=O)[nH]c1=O [dT, 1-[(2R,4S,5R)-4-Hydroxy-5-(hydroxymethyl)oxolan-2-yl]-5-methylpyrimidine-2,4 (1H,3H)-dione]
[1]
  telomere length: failed to drive detectable telomere elongation
[2]; 40 μM dT
  replication stress signaling at the telomere-active dose: far below doses that induce replication stress signaling
[2]; highest doses, 30 hours
  replication stress signaling: induced similar levels of replication stress signaling
[3]; 20 or 40 μM dT, 34 days
  cellular growth: undetectable changes in cellular growth curves; also recorded: undetectable impact on cellular growth
[3]; [12]
  dose at which inhibition of growth was detected: ≥ 50 µM
  doses at which growth was minimally impacted: below 100 μM
[4]; 100 μM dT
  dTDP levels: fourfold
  levels of dTTP compared to vehicle: four-fold
[4]; 100 μM dT for 24 hours
  levels of dTMP, dTDP and dTTP: increases levels of dTMP, dTDP and dTTP
[5]
  cell cycle progression at the telomere-active dose: below those that significantly impacted cell cycle progression
[6]; 30 hours
  dose at which increased telomere repeat synthesis could be observed: 40 µM
[6]; dT supplementation with maximal doses of 5FU
  rescue of telomere synthesis following 5FU treatment: restored telomere elongation despite maximal doses of 5FU; also recorded: fully rescued telomere synthesis
[6]; high-dose dT treatment, 30 hours, baseline 103 bp/hour
  maximal rate of telomere elongation: 625 bp/hour
[6]; treatment for 30 hours
  telomere repeat synthesis / telomere elongation by telomerase: robustly increased telomere repeat synthesis in a dose-responsive and telomerase-dependent manner
[7]
  telomere lengthening from dT with expression of TERT: expression of TERT can increase telomere lengthening from dT
[8]
  telomerase activity in lysates (abundance of active telomerase enzymes): no difference in telomerase activity
[9]
  doses leading to robust telomere elongation in less than 10 days: ≥ 50 µM
[9]; 50 μM dT for eight days, without SAMHD1 knockdown
  telomere lengthening from dT treatment: ~ 470 bp
[9]; 100 μM dT withdrawn after 15 days
  telomere elongation after withdrawal of dT: aborted telomere elongation
[9]; 100 μM dT, over 33 days
  telomere length, time-course of dT treatment: gradually and continually increased telomere length
[9]; 100 μM of the indicated deoxynucleoside(s) for 9 days
  telomere length: rapidly and robustly increases telomere length; also recorded: promoted telomere lengthening, as did dT alone; also recorded: necessary and sufficient for telomere lengthening
[9]; 20 or 40 μM dT, 10 days
  telomere length: minimal telomere length changes
[9]; 20 or 40 μM dT, 34 days
  telomere length: robust telomere lengthening
[9]; 100 micromolar thymidine for 15 days then removed
  persistence of long telomere length after dT withdrawal: more than two weeks
[9]; 10 days
  telomere lengthening following dT with dNTPase-deficient SAMHD1 H215A or K312A variants: could not restrict telomere lengthening following dT supplementation
[9]; 10 days, compared to EGFP control
  telomere lengthening following dT treatment with overexpression of wild-type SAMHD1: reduced telomere lengthening following dT treatment
[9]; 10 days, three manufacturers, each of >98% purity
  telomere elongation with dT from different manufacturers: resulted in telomere elongation similarly
[9]; CRISPR/Cas9 TK1 edited
  telomere lengthening upon dT treatment in TK1-edited cells: complete abrogation of the telomere lengthening; also recorded: prevented telomere lengthening following dT treatment
[9]; CRISPR/Cas9 TK2 edited
  telomere lengthening upon dT treatment in TK2-edited cells: no difference in telomere length increases compared to control AAVS1-targeted cells; also recorded: TK2 knockout did not
[9]; SAMHD1 targeting shRNA, 50 μM dT for eight days
  telomere lengthening, combined SAMHD1 knockdown and dT treatment: ~ 800 bp
[9]; at 100 μM dT
  telomere elongation, increase of base pairs (bp) per day: 96 bp per day
[9]; at […] dT
  telomere elongation, increase of base pairs (bp) per day: 60 bp per day
[9]; baseline 16 μM dT, plus 100 μM additional dT or 1 mM dU, 10 days
  telomere lengthening in TYMS-knockout cells: responsive to dT to promote telomere lengthening
[10]
  telomere length: lengthens telomeres in human HSPCs after just 7 days
[11]
  dT doses with no detectable changes in cell cycle distribution: below 12.5 μM
